# According to PMC12422582, “A divergent cyclic nucleotide binding protein promotes Plasmodium ookinete infection of the mosquito” (PLOS Pathogens, 2025):
# Tests used:
# [1] = target: T1, CNB3 of PbCBP-O (PbCNB3) (Plasmodium berghei, UniProt A0A509AL17); experiment: cGMP-agarose pull-down, anti-His western blot; format: binding; conditions: ligand immobilised through position […] as 8-AET-cGMP-Agarose (BioLog); E. coli lysate, Hepes pH […]°C, […] h
# T1 construct: gene PBANKA_1025300; N-terminal 6xHis, pET28a, E. coli Rosetta DE3, soluble lysate
# [2] = target: T2, CBP-O(ΔN-term), GFP-tagged (Plasmodium berghei, UniProt A0A509AL17); experiment: cGMP-agarose pull-down from schizont lysate, anti-GFP western blot; format: biochemical; conditions: ligand immobilised as 8-AET-cGMP-Agarose; Hepes pH […]°C, […] h
# T2 construct: gene PBANKA_1025300; endogenous locus edited: residues 1-1694 deleted, CNB1-4/X kept, GFP tag; P. berghei schizont lysate
smiles,measurement,setting,value
Nc1nc2c(ncn2[C@@H]2O[C@@H]3COP(=O)(O)O[C@H]3[C@H]2O)c(=O)[nH]1 [cGMP],"cGMP-agarose pull-down, anti-His western blot",[1],CNB3 showed affinity for both cAMP and cGMP (Fig 6C)
same,"cGMP-agarose pull-down from schizont lysate, anti-GFP western blot",[2],the N-term mutant retained cyclic nucleotide binding activity (Fig 6D)
